Like-named read-outs stand apart in the source and are kept apart here. Marks after values point to notes of the source that are not given here. Numbered stars: 1 amine (or outer) side, 2 acyl side, 3 side chain; on linkers, the order of the positions; unused ones are H or OH. Side chains are listed from the residue outwards. Ends that are not written are not given here. Peptide text beside a SMILES is read from it. * marks the point of attachment. TTDA(Palmitoyl) = CCCCCCCCCCCCCCCC(=O)NCCCOCCOCCOCCCN*; γGlu = O=C(O)[C@H](CCC(=O)[*:2])N[*:1]; Palmitoyl = CCCCCCCCCCCCCCCC(=O)*; Suc = O=C(CCC(=O)[*:2])[*:1]
Legend:
[1] = target: T1, rat PrRP receptor (Rattus norvegicus, UniProt Q64121); assay: Competitive binding in RC-4B/C rat pituitary cells (125I-rat PrRP31); conditions: for % of PrRP31, RC-4B/C rat pituitary cells: affinity relative to PrRP31
T1 construct: host or cells: RC-4B/C rat pituitary cell line
T1 sequence (Q64121 1-370): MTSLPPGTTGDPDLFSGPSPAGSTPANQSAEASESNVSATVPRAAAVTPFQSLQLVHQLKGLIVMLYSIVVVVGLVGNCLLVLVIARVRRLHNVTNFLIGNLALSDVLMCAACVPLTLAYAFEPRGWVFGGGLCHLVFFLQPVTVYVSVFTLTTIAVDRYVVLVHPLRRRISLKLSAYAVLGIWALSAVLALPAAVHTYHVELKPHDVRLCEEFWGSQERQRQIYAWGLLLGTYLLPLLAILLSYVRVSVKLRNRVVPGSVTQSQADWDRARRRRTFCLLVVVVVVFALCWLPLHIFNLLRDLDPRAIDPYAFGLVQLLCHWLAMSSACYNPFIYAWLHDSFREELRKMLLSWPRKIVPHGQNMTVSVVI
Outline: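 Displacement of rat 125I-PrRP31 ([…]) by test analogs, 10^−11–10^−4 mol·l^−1, on whole RC-4B/C cells, 60 min RT. Bound counts measured by γ-counter in duplicate, ≥3 repeats, analyzed by nonlinear one-site binding regression.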

[2] = target: T2, human PrRP receptor GPR10 (Homo sapiens, UniProt P49683); assay: Competitive binding in CHO cells transfected with human GPR10 (human 125I-PrRP31); conditions: for % of PrRP31, GPR10 human receptor transfected in CHO cells: affinity relative to PrRP31
T2 construct: host or cells: CHO cells
T2 sequence (P49683 1-370): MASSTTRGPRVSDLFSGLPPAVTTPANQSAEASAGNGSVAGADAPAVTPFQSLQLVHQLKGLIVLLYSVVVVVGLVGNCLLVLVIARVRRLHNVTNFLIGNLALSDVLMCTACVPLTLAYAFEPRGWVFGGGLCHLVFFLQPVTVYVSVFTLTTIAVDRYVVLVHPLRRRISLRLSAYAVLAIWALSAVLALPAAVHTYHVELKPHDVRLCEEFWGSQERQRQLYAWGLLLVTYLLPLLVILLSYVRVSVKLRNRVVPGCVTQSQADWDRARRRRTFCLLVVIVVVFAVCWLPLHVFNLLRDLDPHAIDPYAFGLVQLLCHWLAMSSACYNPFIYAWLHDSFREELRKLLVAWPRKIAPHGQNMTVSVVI
Outline: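 Values from one-site nonlinear regression of displacement curves: analogs (final 10^-11 to 10^-4 mol·l^-1) competed with 125I-PrRP31 (final 5×10^-11 mol·l^-1) on adherent human GPR10 CHO cells. Binding ran 1 h at room temperature, pH 7.4 buffer with NaCl, MgCl2, CaCl2, glucose, BSA; cell-bound radioactivity counted after NaOH lysis.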

[3] = tested on: C57BL/6 mice; assay: Food intake in fasted mice after SC injection; type: in vivo; conditions: 5 mg/kg SC, 45 min after injection
Outline: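 Saline, PrRP or a lipidated analog was injected SC (1-10 mg/kg) after a 17 h fast with free water, animals housed singly.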

[4] = tested on: Wistar rats; assay: Food intake in fasted rats after SC injection; type: in vivo; conditions: overnight fasted rats, compared to controls given vehicle
Method: (§1) NMRI mice, C57BL/6 mice, and Wistar rats (AnLab, Prague, Czech Republic) were housed in a temperature of 23° C. and a daily cycle of 12 h light and dark (light from 6:00). They were given ad libitum water and a standard chow diet that contained 25, 9 and 66% of calories of protein, fat and carbohydrate respectively. Energy content of the feed was 3.4 kcal/g (St-1, Mlýn Kocanda, Czech Republic). Db/db mice and their controls (C57BL/6 background) were obtained from Taconic (Denmark), housed under the same conditions as described above, and fed by Altromin (Taconic, Denmark). ZDF-Lepr^fa/Crl, diabetic fa/fa male rats were obtained from Charles River (France), housed under same conditions as described above, and fed with a Purina 5008 diet (IPS Product Supplies Limited, UK). All experiments followed the ethical guidelines for animal experiments and the law of the Czech Republic Nr. 246/1992.
In experiments with C57BL/6 mice or Wistar rats, food intake was measured with overnight fasted animals in individual cages. Food was withdrawn 17 hours prior to injection of lipidated analog of prolactin releasing peptide (PrRP); free access to water was maintained. The administration of either saline, PrRP, or lipidated analogs was performed by SC injection at doses of 1-10 mg/kg (which corresponded to a volume of 0.2 ml/mouse and 0.1 ml/100 g weight of rat). Fifteen minutes after the lipidated analog of prolactin releasing peptide (PrRP) administration, the mice were given pre-weighed food. The food was then weighed every 30 minutes for 5-10 hours. The administration of each dose was performed at least twice, and each group of mice consisted of at least 6 mice.

[5] = tested on: ZDF diabetic rats; assay: 21 days repeated administration in diabetic ZDF rats (food intake, OGTT, metabolic parameters); type: in vivo; conditions: for Cumulative food intake Day 1 / Cumulative food intake Day 1-7 / Cumulative food intake Day 1-14 / Cumulative food intake Day 1-21 / Cholesterol / Insulin / Leptin: ZDF rats
Method: (§2) Rats were subjected to a 21-day food intake experiment. ZDF rats were IP injected with either phosphate-buffered saline pH6 (control) or compound 43 or 52 at a dose of 1 and 5 mg/kg (n=8), twice a day for 21 days. After 21 days of treatment, rats were fasted overnight and OGTT was performed. After initial blood glucose measurement, 2 g/kg glucose solution was administered by oral gavage. Blood glucose was then measured at 15, 30, 60, 90, 120 and 180 min.
as §1
The ZDF rats were treated with vehicle or analogs 43 and 52 (1 and 5 mg/kg IP) dissolved in phosphate buffered saline, pH 6, twice daily for 21 days and sacrificed on day 22. Food intake was measured daily up to day 22. Leptin, insulin, cholesterol and HbA1c levels were measured on day 21. Glucose tolerance test (OGTT) was also performed on day 21.
as §2, with “min. […] The statistical significance, denoted by the asterisk (*), was *P<0.05.” for “min.”

[6] = tested on: MAPK/ERK1/2 signaling pathway; conditions: positive control; cited from earlier work
[7] = CHO cells, human 125I-PrRP31, read-out: Ki, GPR10 human receptor transfected in CHO cells

## CCCCCCCCCCCCCCCC(=O)N[C@@H](CCC(=O)NCCCC[C@H](NC(=O)[C@@H](NC(=O)[C@H](CCC(=O)O)NC(=O)[C@H](CCSC)NC(=O)[C@H](CO)NC(=O)[C@H](Cc1c[nH]cn1)NC(=O)[C@H](CCCNC(=N)N)NC(=O)[C@H](Cc1c[nH]cn1)NC(=O)[C@@H](NC(=O)[C@H](CCCNC(=N)N)NC(=O)[C@@H](N)CO)[C@@H](C)O)[C@@H](C)CC)C(=O)N[C@H](C(=O)N1CCC[C@H]1C(=O)N[C@@H](CC(=O)O)C(=O)N[C@H](C(=O)N[C@@H](CC(N)=O)C(=O)N1CCC[C@H]1C(=O)N[C@@H](C)C(=O)N[C@@H](Cc1c[nH]c2ccccc12)C(=O)N[C@@H](Cc1ccc(O)cc1)C(=O)N[C@@H](C)C(=O)N[C@@H](CO)C(=O)N[C@@H](CCCNC(=N)N)C(=O)NCC(=O)N[C@H](C(=O)N[C@@H](CCCNC(=N)N)C(=O)N1CCC[C@H]1C(=O)N[C@H](C(=O)NCC(=O)N[C@@H](CCCNC(=N)N)C(=O)N[C@@H](Cc1ccccc1)C(N)=O)C(C)C)[C@@H](C)CC)[C@@H](C)CC)[C@@H](C)O)C(=O)O [Analog 52] (H-SRTHRHSMEIK([γGlu-Palmitoyl])TPDINPAWYASRGIRPVGRF-NH2)
[1]
  Ki: 4.23 ± 2.11 nM
  % of PrRP31, RC-4B/C rat pituitary cells: 57%
[2]
  Ki: 5.95 ± 0.72 nM
  % of PrRP31, GPR10 human receptor transfected in CHO cells: 65%
[3]
  Food intake in mice % of saline-treated group: 10%
[4]
  Food intake in rats: significantly reduced
[5]; 5 mg/kg IP twice daily, vs vehicle
  Food intake in free fed ZDF diabetic rats: significantly lowered
[5]; 1 mg/kg IP twice daily
  Cumulative food intake Day 1: 43.0 ± 2.2 g
  Cumulative food intake Day 1-7: 306.9 ± 11.8 g
  Cumulative food intake Day 1-14: 570.9 ± 17.1 g
  Cumulative food intake Day 1-21: 811.5 ± 23.6 g
[5]; 5 mg/kg IP twice daily
  Cumulative food intake Day 1: 42.4 ± 2.1 g
  Cumulative food intake Day 1-7: 287.8 ± 12.5* g
  Cumulative food intake Day 1-14: 559.0 ± 21.0* g
  Cumulative food intake Day 1-21: 814.8 ± 26.1 g
[5]; day 21, 1 mg/kg IP twice daily
  Cholesterol: 3.71 ± 0.16 mmol/L
  Insulin: 268.94 ± 43.40 pmol/L
  Leptin: 16336 ± 1466 pg/mL
[5]; day 21, 5 mg/kg IP twice daily
  Cholesterol: 3.19 ± 0.16 mmol/L
  Insulin: 183.35 ± 37.49 pmol/L
  Leptin: 11372 ± 427 pg/mL

## CCCCCCCCCCCCCCCC(=O)N[C@@H](CCC(=O)NCCCC[C@H](NC(=O)[C@@H](NC(=O)[C@H](CCC(=O)O)NC(=O)[C@H](CCSC)NC(=O)[C@H](CO)NC(=O)[C@H](Cc1c[nH]cn1)NC(=O)[C@H](CCCNC(=N)N)NC(=O)[C@H](Cc1c[nH]cn1)NC(=O)[C@@H](NC(=O)[C@H](CCC(=O)O)NC(=O)[C@@H](N)CO)[C@@H](C)O)[C@@H](C)CC)C(=O)N[C@H](C(=O)N1CCC[C@H]1C(=O)N[C@@H](CC(=O)O)C(=O)N[C@H](C(=O)N[C@@H](CC(N)=O)C(=O)N1CCC[C@H]1C(=O)N[C@@H](C)C(=O)N[C@@H](Cc1c[nH]c2ccccc12)C(=O)N[C@@H](Cc1ccc(O)cc1)C(=O)N[C@@H](C)C(=O)N[C@@H](CO)C(=O)N[C@@H](CCCNC(=N)N)C(=O)NCC(=O)N[C@H](C(=O)N[C@@H](CCCNC(=N)N)C(=O)N1CCC[C@H]1C(=O)N[C@H](C(=O)NCC(=O)N[C@@H](CCCNC(=N)N)C(=O)N[C@@H](Cc1ccccc1)C(N)=O)C(C)C)[C@@H](C)CC)[C@@H](C)CC)[C@@H](C)O)C(=O)O [Analog 55] (H-SETHRHSMEIK([γGlu-Palmitoyl])TPDINPAWYASRGIRPVGRF-NH2)
[1]
  % of PrRP31, RC-4B/C rat pituitary cells: 236%
[2]; [7]
  Ki: 4.72 ± 0.35 nM
[2]
  % of PrRP31, GPR10 human receptor transfected in CHO cells: 83%
[3]
  Food intake in mice % of saline-treated group: 12%
[4]
  Food intake in rats: significantly reduced

## CCCCCCCCCCCCCCCC(=O)NCCCOCCOCCOCCCNC(=O)CCC(=O)NCCCC[C@H](NC(=O)[C@@H](NC(=O)[C@H](CCC(=O)O)NC(=O)[C@H](CCSC)NC(=O)[C@H](CO)NC(=O)[C@H](Cc1c[nH]cn1)NC(=O)[C@H](CCCNC(=N)N)NC(=O)[C@H](Cc1c[nH]cn1)NC(=O)[C@@H](NC(=O)[C@H](CCCNC(=N)N)NC(=O)[C@@H](N)CO)[C@@H](C)O)[C@@H](C)CC)C(=O)N[C@H](C(=O)N1CCC[C@H]1C(=O)N[C@@H](CC(=O)O)C(=O)N[C@H](C(=O)N[C@@H](CC(N)=O)C(=O)N1CCC[C@H]1C(=O)N[C@@H](C)C(=O)N[C@@H](Cc1c[nH]c2ccccc12)C(=O)N[C@@H](Cc1ccc(O)cc1)C(=O)N[C@@H](C)C(=O)N[C@@H](CO)C(=O)N[C@@H](CCCNC(=N)N)C(=O)NCC(=O)N[C@H](C(=O)N[C@@H](CCCNC(=N)N)C(=O)N1CCC[C@H]1C(=O)N[C@H](C(=O)NCC(=O)N[C@@H](CCCNC(=N)N)C(=O)N[C@@H](Cc1ccccc1)C(N)=O)C(C)C)[C@@H](C)CC)[C@@H](C)CC)[C@@H](C)O [Analog 57] (H-SRTHRHSMEIK([Suc-TTDA(Palmitoyl)])TPDINPAWYASRGIRPVGRF-NH2; N-terminus assumed)
[1]
  % of PrRP31, RC-4B/C rat pituitary cells: 663%
[2]; [7]
  Ki: 3.79 ± 0.46 nM
[2]
  % of PrRP31, GPR10 human receptor transfected in CHO cells: 103%
[3]
  Food intake in mice % of saline-treated group: 10%
[4]
  Food intake in rats: significantly reduced

## PrRP31: prolactin-releasing peptide composed of 31 amino acids, positive control; rat or human form not stated (SRAHQHSMETRTPDINPAWYTGRGIRPVGRF-NH2; ends and bridges not checked)
[6]
  Initiation of MAPK/ERK1/2 signaling: shown to initiate MAPK/ERK1/2 signaling

Reference: patent publication US10350271B2, “Lipidated peptides for lowering blood glucose” (USTAV ORGANICKE CHEMIE A BIOCHEMIE AKADEMIE VED CR, V.V.I., priority 2014, dated 2019)
